Measurements taken from patent publication US9315503B2, “Kinase inhibitors” (CHIESI FARMACEUTICI S.p.A., priority 2011, dated 2016).

How the values were obtained:
[1] = target: T1, p38alpha (Homo sapiens, UniProt Q16539); test: P38Alpha enzyme inhibition assay (Alphascreen kinase activity assay); format: biochemical; conditions: 100 pM p38alpha, 250 μM ATP, 2 hours pre-incubation at 25° C., read-out: p38α inhibition (IC50 values)
T1 construct: purchased Invitrogen PV3304
How it was run: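 p38α (100 pM) with ATF-2 fusion protein substrate (0.3 µg/ml) in pH 7.5 HEPES/MgCl2 buffer, 1% DMSO, preincubated 2 h at 25°C with compound. Reaction started with 250 µM ATP, ran 1 h at 25°C, then stopped with EDTA. Phospho-ATF2 antibody detected by AlphaScreen luminescence; IC50 from concentration-response curves.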

[2] = tested on: LPS-stimulated TNFα release from PBMCs; test: LPS-stimulated PBMC TNFα release assay; format: cell-based; conditions: inhibition of TNFα release, human PBMCs, LPS 10 ng/ml, 18 h, ELISA, read-out: p38α inhibition (IC50 values)
Description: LPS-Stimulated PBMC TNFα Release Assay.
Peripheral Blood Mononuclear Cells (PBMCs) were isolated from healthy human volunteer blood using a standard density gradient centrifugation technique. Citrated blood was placed onto Histopaque™ and centrifuged. The PBMCs were removed from the density gradient interface and washed in phosphate buffered saline (PBS). The PBMCs were suspended in RPMI 1640 medium (without serum), dispensed into a 96-well plate and incubated at 37° C. for 3 h in a humidified incubator. After incubation, the medium was replaced (with medium containing 1% foetal bovine serum) and the plate incubated at 37° C., for 1 h, in the presence of test compound or the appropriate vehicle. LPS (10 ng/ml), or an appropriate vehicle control, was then added to the cells and the plate returned to the incubator for 18 h. Cell-free supernatants were removed and assayed for TNFα levels using an ELISA kit from R&D Systems.
A dose response curve to each test compound was performed and the effect of compound in each experiment was expressed as a percentage inhibition of the control TNFα release. Dose response curves were plotted and compound potency (IC50) was determined. Compounds were tested in at least three separate experiments.

T1 sequence (Q16539 whole entry): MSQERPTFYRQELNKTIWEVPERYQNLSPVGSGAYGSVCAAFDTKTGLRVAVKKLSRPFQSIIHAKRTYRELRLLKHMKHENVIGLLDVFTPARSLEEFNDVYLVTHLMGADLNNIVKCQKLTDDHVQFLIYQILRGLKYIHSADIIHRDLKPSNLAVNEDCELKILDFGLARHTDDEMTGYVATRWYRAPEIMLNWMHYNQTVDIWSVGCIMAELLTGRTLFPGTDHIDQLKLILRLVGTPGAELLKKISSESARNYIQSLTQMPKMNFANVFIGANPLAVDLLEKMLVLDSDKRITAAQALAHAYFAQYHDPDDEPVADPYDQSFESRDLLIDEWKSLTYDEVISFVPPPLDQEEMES

Structure (SMILES) | IC50 [1] [nM] | IC50 [2] [nM]
CC(C)(C)c1cc(NC(=O)N[C@H]2CC[C@@H](Oc3ccc4nnc(N5CCCCC5)n4c3)c3ccccc32)n(-c2ccc(CO)cc2)n1 [Example 34, 1-[5-tert-Butyl-2-(4-hydroxymethyl-phenyl)-2H-pyrazol-3-yl]-3-[(1S,4R)-4-(3-piperidin-1-yl-[1,2,4]triazolo[4,3-a]pyridin-6-yloxy)-1,2,3,4-tetrahydro-naphthalen-1-yl]-urea] | < 10 | < 10
CN1CCC[C@H]1c1nnc2ccc(O[C@@H]3CC[C@H](NC(=O)Nc4cc(C(C)(C)C)nn4-c4cccc(SCCO)c4)c4ccccc43)cn12 [Example 35, 1-{5-tert-Butyl-2-[3-(2-hydroxy-ethylsulfanyl)-phenyl]-2H-pyrazol-3-yl}-3-{(1S,4R)-4-[3-((S)-1-methyl-pyrrolidin-2-yl)-[1,2,4]triazolo[4,3-a]pyridin-6-yloxy]-1,2,3,4-tetrahydro-naphthalen-1-yl}-urea] | < 10 | < 10
Cc1ccc(-n2nc(C(C)(C)CO)cc2NC(=O)N[C@H]2CC[C@@H](Oc3ccc4nnc(N5CCCCC5)n4c3)c3ccccc32)cc1 [Example 36, 1-[5-(2-Hydroxy-1,1-dimethyl-ethyl)-2-p-tolyl-2H-pyrazol-3-yl]-3-[(1S,4R)-4-(3-piperidin-1-yl-[1,2,4]triazolo[4,3-a]pyridin-6-yloxy)-1,2,3,4-tetrahydro-naphthalen-1-yl]-urea] | < 10 | < 10
CN1CCC[C@H]1c1nnc2ccc(O[C@H]3C[C@H](NC(=O)Nc4cc(C(C)(C)C)nn4-c4ccc(CO)cc4)c4ccccc43)cn12 [Example 37, 1-[5-tert-Butyl-2-(4-hydroxymethyl-phenyl)-2H-pyrazol-3-yl]-3-{(1S,3S)-3-[3-((S)-1-methyl-pyrrolidin-2-yl)-[1,2,4]triazolo[4,3-a]pyridin-6-yloxy]-indan-1-yl}-urea] | < 10 | < 10
Cc1ccc(-n2nc(C(C)(C)C)cc2NC(=O)N[C@H]2CC[C@@H](Oc3ccc4nnc(N5CC[C@@H](O)C5)n4c3)c3ccccc32)cc1 [Example 38, 1-(5-tert-Butyl-2-p-tolyl-2H-pyrazol-3-yl)-3-{(1S,4R)-4-[3-((R)-3-hydroxy-pyrrolidin-1-yl)-[1,2,4]triazolo[4,3-a]pyridin-6-yloxy]-1,2,3,4-tetrahydro-naphthalen-1-yl}-urea] | < 10 | < 10
CC(C)(C)c1cc(NC(=O)N[C@H]2CC[C@@H](Oc3ccc4nnc(N5CCCCC5)n4c3)c3ccccc32)n(-c2cccc(OCCO)c2)n1 [Example 39, 1-{5-tert-Butyl-2-[3-(2-hydroxy-ethoxy)-phenyl]-2H-pyrazol-3-yl}-3-[(1S,4R)-4-(3-piperidin-1-yl-[1,2,4]triazolo[4,3-a]pyridin-6-yloxy)-1,2,3,4-tetrahydro-naphthalen-1-yl]-urea] | < 10 | < 10
CN(C)CCOc1cccc(-n2nc(C(C)(C)C)cc2NC(=O)N[C@H]2CC[C@@H](Oc3ccc4nnc(N5CCCCC5)n4c3)c3ccccc32)c1 [Example 40, 1-{5-tert-Butyl-2-[3-(2-dimethylamino-ethoxy)-phenyl]-2H-pyrazol-3-yl}-3-[(1S,4R)-4-(3-piperidin-1-yl-[1,2,4]triazolo[4,3-a]pyridin-6-yloxy)-1,2,3,4-tetrahydro-naphthalen-1-yl]-urea] | < 10 | < 10
CN1CCN(Cc2cccc(-n3nc(C(C)(C)C)cc3NC(=O)N[C@H]3CC[C@@H](Oc4ccc5nnc(N6CCCCC6)n5c4)c4ccccc43)c2)CC1 [Example 41, 1-{5-tert-Butyl-2-[3-(4-methyl-piperazin-1-ylmethyl)-phenyl]-2H-pyrazol-3-yl}-3-[(1S,4R)-4-(3-piperidin-1-yl-[1,2,4]triazolo[4,3-a]pyridin-6-yloxy)-1,2,3,4-tetrahydro-naphthalen-1-yl]-urea] | < 10 | < 10
CN1CCC[C@H]1c1nnc2ccc(O[C@@H]3CC[C@H](NC(=O)Nc4cc(C(C)(C)C)nn4-c4cccc(OCCO)c4)c4ccccc43)cn12 [Example 42, 1-{5-tert-Butyl-2-[3-(2-hydroxy-ethoxy)-phenyl]-2H-pyrazol-3-yl}-3-{(1S,4R)-4-[3-((S)-1-methyl-pyrrolidin-2-yl)-[1,2,4]triazolo[4,3-a]pyridin-6-yloxy]-1,2,3,4-tetrahydro-naphthalen-1-yl}-urea] | < 10 | < 10
Cc1ccc(-n2nc(C(C)(C)C)cc2NC(=O)N[C@H]2CC[C@@H](Oc3ccc4nnc(N(C)CCN(C)C)n4c3)c3ccccc32)cc1 [Example 43, 1-(5-tert-Butyl-2-p-tolyl-2H-pyrazol-3-yl)-3-((1S,4R)-4-{3-[(2-dimethylamino-ethyl)-methyl-amino]-[1,2,4]triazolo[4,3-a]pyridin-6-yloxy}-1,2,3,4-tetrahydro-naphthalen-1-yl)-urea] | < 10 | < 10
CC(C)(C)c1cc(NC(=O)N[C@H]2CC[C@@H](Oc3ccc4nnc(N5CCCCC5)n4c3)c3ccccc32)n(-c2cccc(CN3CCCCC3)c2)n1 [Example 44, 1-[5-tert-Butyl-2-(3-piperidin-1-ylmethyl-phenyl)-2H-pyrazol-3-yl]-3-[(1S,4R)-4-(3-piperidin-1-yl-[1,2,4]triazolo[4,3-a]pyridin-6-yloxy)-1,2,3,4-tetrahydro-naphthalen-1-yl]-urea] | < 10 | < 10
Cc1ccc(-n2nc(C(C)(C)C)cc2NC(=O)N[C@H]2CC[C@@H](Oc3ccc4nnc([C@]5(C)CCCN5C)n4c3)c3ccccc32)cc1 [Example 47, 1-(5-tert-Butyl-2-p-tolyl-2H-pyrazol-3-yl)-3-{(1S,4R)-4-[3-((S)-1,2-dimethyl-pyrrolidin-2-yl)-[1,2,4]triazolo[4,3-a]pyridin-6-yloxy]-1,2,3,4-tetrahydro-naphthalen-1-yl}-urea] | < 10 | < 10
CC(C)(C)c1cc(NC(=O)N[C@H]2CC[C@@H](Oc3ccc4nnc(N5CCCCC5)n4c3)c3ccccc32)n(-c2cccc(COCCO)c2)n1 [Example 48, 1-{5-tert-Butyl-2-[3-(2-hydroxy-ethoxymethyl)-phenyl]-2H-pyrazol-3-yl}-3-[(1S,4R)-4-(3-piperidin-1-yl-[1,2,4]triazolo[4,3-a]pyridin-6-yloxy)-1,2,3,4-tetrahydro-naphthalen-1-yl]-urea] | < 10 | < 10
Cc1ccc(-n2nc(C(C)(C)C)cc2NC(=O)N[C@H]2CC[C@@H](Oc3ccc4nnc(N5CCCOCC5)n4c3)c3ccccc32)cc1 [Example 49, 1-(5-tert-Butyl-2-p-tolyl-2H-pyrazol-3-yl)-3-[(1S,4R)-4-(3-[1,4]oxazepan-4-yl-[1,2,4]triazolo[4,3-a]pyridin-6-yloxy)-1,2,3,4-tetrahydro-naphthalen-1-yl]-urea] | < 10 | < 10
CC(C)(C)c1cc(NC(=O)N[C@H]2CC[C@@H](Oc3ccc4nnc(N5CCCCC5)n4c3)c3ccccc32)n(-c2cccc(CN3CCN(CCO)CC3)c2)n1 [Example 50, 1-(5-tert-Butyl-2-{3-[4-(2-hydroxy-ethyl)-piperazin-1-ylmethyl]-phenyl}-2H-pyrazol-3-yl)-3-[(1S,4R)-4-(3-piperidin-1-yl-[1,2,4]triazolo[4,3-a]pyridin-6-yloxy)-1,2,3,4-tetrahydro-naphthalen-1-yl]-urea] | < 10 | < 10
CC(C)(C)c1cc(NC(=O)N[C@H]2CC[C@@H](Oc3ccc4nnc(N5CCCCC5)n4c3)c3ccccc32)n(-c2cccc(CN3CCC(O)CC3)c2)n1 [Example 52, 1-{5-tert-Butyl-2-[3-(4-hydroxy-piperidin-1-ylmethyl)-phenyl]-2H-pyrazol-3-yl}-3-[(1S,4R)-4-(3-piperidin-1-yl-[1,2,4]triazolo[4,3-a]pyridin-6-yloxy)-1,2,3,4-tetrahydro-naphthalen-1-yl]-urea] | < 10 | < 10
CC(C)(C)c1cc(NC(=O)N[C@H]2CC[C@@H](Oc3ccc4nnc(N5CCCCC5)n4c3)c3ccccc32)n(-c2cccc(SCCO)c2)n1 [Example 53, 1-{5-tert-Butyl-2-[3-(2-hydroxy-ethylsulfanyl)-phenyl]-2H-pyrazol-3-yl}-3-[(1S,4R)-4-(3-piperidin-1-yl-[1,2,4]triazolo[4,3-a]pyridin-6-yloxy)-1,2,3,4-tetrahydro-naphthalen-1-yl]-urea] | < 10 | < 10
Cc1ccc(-n2nc(C(C)(C)C)cc2NC(=O)N[C@H]2CC[C@@H](Oc3ccc4nnc(N5CCC(CO)CC5)n4c3)c3ccccc32)cc1 [Example 54, 1-(5-tert-Butyl-2-p-tolyl-2H-pyrazol-3-yl)-3-{(1S,4R)-4-[3-(4-hydroxymethyl-piperidin-1-yl)-[1,2,4]triazolo[4,3-a]pyridin-6-yloxy]-1,2,3,4-tetrahydro-naphthalen-1-yl}-urea] | < 10 | < 10
